The target of data set [1] is ATP-dependent translocase ABCB1 (Homo sapiens, UniProt P08183). Put plainly: Reversal of P-gp mediated doxorubicin resistance in human SW620 Ad300 cells overexpressing P-gp at 30 uM after 48 hrs by MTT assay. It is filed as cell-based. Conditions: sw-620, 48 h.
In another data set the test system is SW-620. Put plainly: Cytotoxicity against human SW620 cells after 48 hrs by MTT assay. It is filed as functional, cell-based.
In another data set the test system is Escherichia coli. Put plainly: Antibacterial activity against Escherichia coli ATCC 11775 assessed as inhibition of bacterial growth incubated for 24 hrs. It is filed as functional, organism-based. Particulars: ATCC 11775, 24 h.
The next data set concerns Staphylococcus aureus. Put plainly: Antibacterial activity against Staphylococcus aureus ATCC 25923 assessed as inhibition of bacterial growth incubated for 24 hrs. In kind it is functional, organism-based. Conditions: ATCC 25923, 24 h.
The subject of the next data set is Candida albicans. Kind of data set: Antifungal activity against Candida albicans ATCC 10231 assessed as inhibition of fungal growth incubated for 24 hrs. In kind it is functional, organism-based. Particulars: ATCC 10231, 24 h.

The source made the active and inactive calls. The rule behind the calls is not given here.

Chain of ATP-dependent translocase ABCB1 (P08183 whole entry): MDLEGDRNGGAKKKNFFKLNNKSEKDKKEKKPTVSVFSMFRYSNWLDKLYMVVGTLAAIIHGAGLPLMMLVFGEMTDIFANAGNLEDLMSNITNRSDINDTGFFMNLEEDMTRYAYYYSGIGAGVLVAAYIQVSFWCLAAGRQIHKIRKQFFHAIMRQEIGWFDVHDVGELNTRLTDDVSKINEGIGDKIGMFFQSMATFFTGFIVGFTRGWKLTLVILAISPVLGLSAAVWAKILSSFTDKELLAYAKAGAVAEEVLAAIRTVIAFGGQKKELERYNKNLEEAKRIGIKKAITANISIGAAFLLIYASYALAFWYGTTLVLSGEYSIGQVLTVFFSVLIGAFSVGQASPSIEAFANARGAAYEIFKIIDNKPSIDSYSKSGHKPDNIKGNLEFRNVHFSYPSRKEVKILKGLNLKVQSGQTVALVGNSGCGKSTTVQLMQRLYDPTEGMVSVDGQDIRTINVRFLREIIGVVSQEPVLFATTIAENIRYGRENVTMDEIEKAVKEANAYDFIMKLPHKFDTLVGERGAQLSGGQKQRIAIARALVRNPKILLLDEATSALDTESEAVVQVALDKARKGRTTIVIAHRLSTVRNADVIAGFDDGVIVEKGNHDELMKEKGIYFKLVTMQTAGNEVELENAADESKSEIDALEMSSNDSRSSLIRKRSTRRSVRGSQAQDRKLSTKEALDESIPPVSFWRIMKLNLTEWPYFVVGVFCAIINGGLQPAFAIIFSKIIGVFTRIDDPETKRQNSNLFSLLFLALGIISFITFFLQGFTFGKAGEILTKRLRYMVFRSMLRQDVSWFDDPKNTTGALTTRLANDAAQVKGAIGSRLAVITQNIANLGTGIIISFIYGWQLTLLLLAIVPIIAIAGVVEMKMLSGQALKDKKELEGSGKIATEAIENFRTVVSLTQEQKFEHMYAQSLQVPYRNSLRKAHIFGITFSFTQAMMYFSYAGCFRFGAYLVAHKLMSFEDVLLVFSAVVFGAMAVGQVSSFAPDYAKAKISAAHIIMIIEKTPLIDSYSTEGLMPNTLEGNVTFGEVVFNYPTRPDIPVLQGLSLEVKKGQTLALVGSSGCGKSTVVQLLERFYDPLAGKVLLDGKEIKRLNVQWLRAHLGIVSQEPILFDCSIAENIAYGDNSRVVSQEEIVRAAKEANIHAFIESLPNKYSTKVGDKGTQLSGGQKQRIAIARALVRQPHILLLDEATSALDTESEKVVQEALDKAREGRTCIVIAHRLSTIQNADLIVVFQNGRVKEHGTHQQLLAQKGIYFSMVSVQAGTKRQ

Take `COc1cc(C)cc2c1C(=O)c1c(O)c(OC)c(O)c(Cl)c1[C@@H]2[C@@H]1c2cc(C)cc(OC)c2C(=O)c2c(O)c(OC)c(O)c(Cl)c21`: the Activity entry in data set [1] is listed as “Not Active”. In the data set with SW-620, the outcome was inactive. The IC50 with Escherichia coli, in the data set on Staphylococcus aureus and with Candida albicans was > 30 µM in each case.

Take `COc1cc(C)cc2c1C(=O)c1c(O)c(OC)c(O)c(Cl)c1[C@@H]2[C@H]1c2cc(C)cc(OC)c2C(=O)c2c(O)cc(O)c(Cl)c21`: in data set [1], the Activity result is “Not Active”. Moreover, the outcome in the data set with SW-620 was inactive. In addition, the IC50 in the data set with Escherichia coli, in the data set on Staphylococcus aureus and in the data set on Candida albicans was > 30 µM in each case.

As for `COc1cc(C)cc2c1C(=O)c1c(cc(O)c(OC)c1O)[C@H]2[C@@H]1c2cc(C)cc(OC)c2C(=O)c2c(O)cc(O)c(Cl)c21`, in data set [1], the Activity entry was “Not Active”. The result in the data set on SW-620 was inactive. For the same molecule, the half-inhibitory concentration (IC50) in the data set on Escherichia coli, with Staphylococcus aureus and with Candida albicans was > 30 µM each time.

As to `COc1cc(C)cc2c1C(=O)c1c(cc(O)c(OC)c1O)[C@@H]2[C@@H]1c2cc(C)cc(OC)c2C(=O)c2c(O)c(OC)c(O)c(Cl)c21`, the Activity result in data set [1] is given as “Not Active”. The result in the data set with SW-620 was inactive. Further, the concentration for half-maximal inhibition (IC50) with Escherichia coli, in the data set on Staphylococcus aureus and in the data set with Candida albicans was > 30 µM throughout.

With `COc1cc(CO)cc2c1C(=O)c1c(cc(O)c(OC)c1O)C2=O`, the Activity entry in data set [1] is on record as “Not Active”. In addition, the result in the data set on SW-620 was inactive. For the same molecule, the half-maximal inhibitory concentration (IC50) in the data set with Escherichia coli, in the data set on Staphylococcus aureus and in the data set on Candida albicans was > 30 µM in each case.

Take `COc1cc(C)cc2c1C(=O)c1c(O)cc(O)cc1[C@@H]2[C@@H]1c2cc(C)cc(OC)c2C(=O)c2c(O)cc(O)c(Cl)c21`: the Activity entry in data set [1] is “Not Active”. In addition, the result in the data set with SW-620 was inactive. The IC50 in the data set with Escherichia coli, in the data set on Staphylococcus aureus and with Candida albicans was > 30 µM in each case.

Turning to `COc1cc(C)cc2c1C(=O)c1c(cc(O)c(OC)c1O)C2=O`, the Activity result in data set [1] is given as “Not Active”. In the data set on SW-620, the result was inactive. Besides, the IC50 with Escherichia coli, in the data set with Staphylococcus aureus and in the data set with Candida albicans was > 30 µM in each case.

Consider `COc1cc(C)cc2c1C(=O)c1c(cc(O)c(OC)c1O)[C@@H]2[C@@H]1c2cc(C)cc(OC)c2C(=O)c2c(O)cc(O)c(Cl)c21`, for which the Activity entry in data set [1] is on record as “Not Active”. Also, the result in the data set with SW-620 was inactive. For the same molecule, the IC50 with Escherichia coli, in the data set with Staphylococcus aureus and in the data set with Candida albicans was > 30 µM each time.

Consider `COc1cc(C)cc2c1C(=O)c1c(O)cc(O)c(Cl)c1[C@@H]2[C@@H]1c2cc(C)cc(OC)c2C(=O)c2c(O)cc(O)c(Cl)c21`, for which the Activity result in data set [1] is “Not Active”. Moreover, the outcome in the data set on SW-620 was inactive. In addition, the concentration for half-maximal inhibition (IC50) in the data set on Escherichia coli, in the data set on Staphylococcus aureus and in the data set with Candida albicans was > 30 µM in each case.

Take `COc1cc(C)cc2c1C(=O)c1c(O)c(OC)c(O)c(Cl)c1[C@@H]2[C@H]1c2cc(C)cc(OC)c2C(=O)c2c(O)c(OC)c(O)c(Cl)c21`: in data set [1], the Activity entry was “Not Active”. For the same molecule, the outcome in the data set with SW-620 was inactive. The IC50 in the data set with Escherichia coli, in the data set on Staphylococcus aureus and in the data set with Candida albicans was > 30 µM each time.

Consider `COc1cc(C)cc2c1C(=O)c1c(O)cc(O)c(Cl)c1C2O` (stereo not given), for which the Activity result in data set [1] is on record as “Not Active”. The result in the data set with SW-620 was inactive. The IC50 in the data set on Escherichia coli, with Staphylococcus aureus and in the data set on Candida albicans was > 30 µM throughout.

In the case of `COc1cc(C)cc2c1C(=O)c1c(O)cc(O)c(Cl)c1[C@@H]2[C@@H]1c2cc(C)cc(OC)c2C(=O)c2c(O)c(OC)c(O)c(Cl)c21`, the Activity entry in data set [1] is given as “Not Active”. For the same molecule, in the data set on SW-620, the result was inactive. In addition, the 50% inhibitory concentration (IC50) with Escherichia coli, with Staphylococcus aureus and in the data set with Candida albicans was > 30 µM in each case.

In the case of `COc1cc(C)cc2c1C(=O)c1c(O)cc(O)cc1C2=O` [1-O-METHYLEMODIN], the Activity entry in data set [1] was “Not Active”. Moreover, the outcome with SW-620 was inactive. Also, the half-maximal inhibitory concentration (IC50) in the data set on Escherichia coli, with Staphylococcus aureus and in the data set on Candida albicans was > 30 µM each time.

For the molecule `COc1cc(C)cc2c1C(=O)c1c(O)cc(O)c(Cl)c1[C@@H]2[C@H]1c2cc(C)cc(OC)c2C(=O)c2c(O)cc(O)c(Cl)c21`, the Activity entry in data set [1] is on record as “Not Active”. The outcome with SW-620 was inactive. For the same molecule, the IC50 in the data set with Escherichia coli, with Staphylococcus aureus and in the data set with Candida albicans was > 30 µM throughout.

For the molecule `COc1cc(C)cc2c1C(=O)c1c(O)cc(O)cc1[C@@H]2[C@@H]1c2cc(C)cc(OC)c2C(=O)c2c(O)c(OC)c(O)c(Cl)c21`, in data set [1], the Activity result is given as “Not Active”. For the same molecule, in the data set on SW-620, the result was inactive. For the same molecule, the 50% inhibitory concentration (IC50) in the data set with Escherichia coli, with Staphylococcus aureus and in the data set on Candida albicans was > 30 µM throughout.

`COc1cc(CO)cc2c1C(=O)c1c(O)cc(O)cc1C2=O` [CARVIOLIN]: the Activity entry in data set [1] is listed as “Not Active”. Also, in the data set with SW-620, the result was inactive. For the same molecule, the IC50 with Escherichia coli, in the data set with Staphylococcus aureus and with Candida albicans was > 30 µM each time.

Values taken from ChEMBL document CHEMBL4834394, “Neobulgarones Revisited: Anti and Syn Bianthrones from an Australian Mud Dauber Wasp Nest-Associated Fungus, Penicillium sp. CMB-MD22” (J Nat Prod, 2021).
